In the supplement of paper PMC11451515:

Test system: SEM cells
Assay: cell viability relative to DMSO control; higher = less cytotoxic
Conditions: 48 h
How it was run: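 Library compounds in DMSO were pin-dosed into 1536-well plates (5 μl) holding NOMO1 or SEM (500 cells/well) or P12-Ichikawa (1000 cells/well) leukemia cells, across an 11-point threefold series of 47 μM to 0.79 nM. Each cell line had been adapted for at least four passages in each medium. CellTiter-Glo One luminescence was read after 48 h at 37°C. Viability is the per-plate percentage relative to DMSO wells, with cell-free wells as background.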

[1] = HPLM + 10% dialyzed FBS, 0.000781 µM
[2] = HPLM + 10% dialyzed FBS, 0.00234 µM
[3] = HPLM + 10% dialyzed FBS, 0.00702 µM
[4] = HPLM + 10% dialyzed FBS, 0.0211 µM
[5] = HPLM + 10% dialyzed FBS, 0.0632 µM
[6] = HPLM + 10% dialyzed FBS, 0.19 µM
[7] = HPLM + 10% dialyzed FBS, 0.569 µM
[8] = HPLM + 10% dialyzed FBS, 1.71 µM
[9] = HPLM + 10% dialyzed FBS, 5.12 µM
[10] = HPLM + 10% dialyzed FBS, 15.4 µM
[11] = HPLM + 10% dialyzed FBS, 46.1 µM
[12] = RPMI 5 mM glucose + 10% FBS, 0.000781 µM
[13] = RPMI 5 mM glucose + 10% FBS, 0.00234 µM
[14] = RPMI 5 mM glucose + 10% FBS, 0.00702 µM
[15] = RPMI 5 mM glucose + 10% FBS, 0.0211 µM
[16] = RPMI 5 mM glucose + 10% FBS, 0.0632 µM
[17] = RPMI 5 mM glucose + 10% FBS, 0.19 µM
[18] = RPMI 5 mM glucose + 10% FBS, 0.569 µM
[19] = RPMI 5 mM glucose + 10% FBS, 1.71 µM
[20] = RPMI 5 mM glucose + 10% FBS, 5.12 µM
[21] = RPMI 5 mM glucose + 10% FBS, 15.4 µM
[22] = RPMI 5 mM glucose + 10% FBS, 46.1 µM
[23] = RPMI 5 mM glucose + 10% dialyzed FBS, 0.000781 µM
[24] = RPMI 5 mM glucose + 10% dialyzed FBS, 0.00234 µM
[25] = RPMI 5 mM glucose + 10% dialyzed FBS, 0.00702 µM
[26] = RPMI 5 mM glucose + 10% dialyzed FBS, 0.0211 µM
[27] = RPMI 5 mM glucose + 10% dialyzed FBS, 0.0632 µM
[28] = RPMI 5 mM glucose + 10% dialyzed FBS, 0.19 µM
[29] = RPMI 5 mM glucose + 10% dialyzed FBS, 0.569 µM
[30] = RPMI 5 mM glucose + 10% dialyzed FBS, 1.71 µM
[31] = RPMI 5 mM glucose + 10% dialyzed FBS, 5.12 µM
[32] = RPMI 5 mM glucose + 10% dialyzed FBS, 15.4 µM
[33] = RPMI 5 mM glucose + 10% dialyzed FBS, 46.1 µM

N[S+](=O)([O-])c1cc2c(cc1Cl)NCN[S+]2(=O)[O-]
cell viability [1]: 92.5% | cell viability [2]: 102% | cell viability [3]: 101% | cell viability [4]: 94.6% | cell viability [5]: 104% | cell viability [6]: 111% | cell viability [7]: 114% | cell viability [8]: 109% | cell viability [9]: 114% | cell viability [10]: 121% | cell viability [11]: 107% | cell viability [12]: 96.2% | cell viability [13]: 115% | cell viability [14]: 109% | cell viability [15]: 104% | cell viability [16]: 110% | cell viability [17]: 107% | cell viability [18]: 114% | cell viability [19]: 119% | cell viability [20]: 124% | cell viability [21]: 116% | cell viability [22]: 120% | cell viability [23]: 88.4% | cell viability [24]: 100% | cell viability [25]: 112% | cell viability [26]: 124% | cell viability [27]: 107% | cell viability [28]: 124% | cell viability [29]: 107% | cell viability [30]: 134% | cell viability [31]: 117% | cell viability [32]: 115% | cell viability [33]: 151%

O=C1C(CCC(O)c2ccc(F)cc2)C(c2ccc(O)cc2)N1c1ccc(F)cc1 (stereo unspecified)
cell viability [1]: 107% | cell viability [2]: 97.3% | cell viability [3]: 110% | cell viability [4]: 112% | cell viability [5]: 103% | cell viability [6]: 109% | cell viability [7]: 108% | cell viability [8]: 101% | cell viability [9]: 113% | cell viability [10]: 102% | cell viability [11]: 104% | cell viability [12]: 81.4% | cell viability [13]: 98.2% | cell viability [14]: 96% | cell viability [15]: 111% | cell viability [16]: 92.9% | cell viability [17]: 100% | cell viability [18]: 101% | cell viability [19]: 97.1% | cell viability [20]: 114% | cell viability [21]: 98.8% | cell viability [22]: 101% | cell viability [23]: 106% | cell viability [24]: 113% | cell viability [25]: 121% | cell viability [26]: 121% | cell viability [27]: 128% | cell viability [28]: 113% | cell viability [29]: 115% | cell viability [30]: 121% | cell viability [31]: 113% | cell viability [32]: 108% | cell viability [33]: 108%
